Laboratory results published in patent US8192962B2, “Processes for detecting toxic substances” (Daikin Industries, Ltd., priority 2001, dated 2012).

Test system: Transport facilitation protein genes
Test: DNA chip mRNA expression in yeast, transport facilitation protein genes (Table 5)
Format: cell-based, Saccharomyces cerevisiae S288C
Summary of the method: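 S. cerevisiae S288C grown at 25° C in YPD were exposed in log phase for two hours to one toxic chemical at a growth-inhibiting, non-lethal concentration; untreated cells served as control. Poly(A) mRNA was reverse-transcribed with Cy3/Cy5-dUTP and hybridized to a whole-genome yeast DNA chip at 65° C for over 12 hours; values are fluorescence ratios versus untreated.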

Structure (SMILES): Oc1cc(Cl)c(Cl)cc1Cl [(6), 2,4,5-trichlorophenol]
- The level of expressed mRNA in the presence of chemical substance/The level of expressed mRNA in the absence of chemical substance (yeast gene YGR281W): 1.9
- The level of expressed mRNA in the presence of chemical substance/The level of expressed mRNA in the absence of chemical substance (yeast gene YHL035C): 4.1
- The level of expressed mRNA in the presence of chemical substance/The level of expressed mRNA in the absence of chemical substance (yeast gene YHL040C): 7.3
- The level of expressed mRNA in the presence of chemical substance/The level of expressed mRNA in the absence of chemical substance (yeast gene YHL047C): 8.4
- The level of expressed mRNA in the presence of chemical substance/The level of expressed mRNA in the absence of chemical substance (yeast gene YHR026W): 1.3
- The level of expressed mRNA in the presence of chemical substance/The level of expressed mRNA in the absence of chemical substance (yeast gene YHR092C): 1.7
- The level of expressed mRNA in the presence of chemical substance/The level of expressed mRNA in the absence of chemical substance (yeast gene YHR094C): 1.6
- The level of expressed mRNA in the presence of chemical substance/The level of expressed mRNA in the absence of chemical substance (yeast gene YHR175W): 1.0
- The level of expressed mRNA in the presence of chemical substance/The level of expressed mRNA in the absence of chemical substance (yeast gene YIL006W): 0.3
- The level of expressed mRNA in the presence of chemical substance/The level of expressed mRNA in the absence of chemical substance (yeast gene YIL022W): 1.2
- The level of expressed mRNA in the presence of chemical substance/The level of expressed mRNA in the absence of chemical substance (yeast gene YIL056W): 1.0
- The level of expressed mRNA in the presence of chemical substance/The level of expressed mRNA in the absence of chemical substance (yeast gene YIL088C): 2.2
- The level of expressed mRNA in the presence of chemical substance/The level of expressed mRNA in the absence of chemical substance (yeast gene YJL034W): 1.1
- The level of expressed mRNA in the presence of chemical substance/The level of expressed mRNA in the absence of chemical substance (yeast gene YJL212C): 1.1
- The level of expressed mRNA in the presence of chemical substance/The level of expressed mRNA in the absence of chemical substance (yeast gene YJL219W): 1.5
- The level of expressed mRNA in the presence of chemical substance/The level of expressed mRNA in the absence of chemical substance (yeast gene YJR077C): 0.9
- The level of expressed mRNA in the presence of chemical substance/The level of expressed mRNA in the absence of chemical substance (yeast gene YJR106W): 1.2
- The level of expressed mRNA in the presence of chemical substance/The level of expressed mRNA in the absence of chemical substance (yeast gene YJR121W): 1.5
- The level of expressed mRNA in the presence of chemical substance/The level of expressed mRNA in the absence of chemical substance (yeast gene YKL016C): 0.8
- The level of expressed mRNA in the presence of chemical substance/The level of expressed mRNA in the absence of chemical substance (yeast gene YKL146W): 1.3
- The level of expressed mRNA in the presence of chemical substance/The level of expressed mRNA in the absence of chemical substance (yeast gene YKR039W): 2.8
- The level of expressed mRNA in the presence of chemical substance/The level of expressed mRNA in the absence of chemical substance (yeast gene YKR067W): 1.8
- The level of expressed mRNA in the presence of chemical substance/The level of expressed mRNA in the absence of chemical substance (yeast gene YLL028W): 1.7
- The level of expressed mRNA in the presence of chemical substance/The level of expressed mRNA in the absence of chemical substance (yeast gene YLL055W): 1.4
- The level of expressed mRNA in the presence of chemical substance/The level of expressed mRNA in the absence of chemical substance (yeast gene YLR081W): 0.9
- The level of expressed mRNA in the presence of chemical substance/The level of expressed mRNA in the absence of chemical substance (yeast gene YLR295C): 1.1
- The level of expressed mRNA in the presence of chemical substance/The level of expressed mRNA in the absence of chemical substance (yeast gene YLR348C): 1.9
- The level of expressed mRNA in the presence of chemical substance/The level of expressed mRNA in the absence of chemical substance (yeast gene YLR378C): 1.2
- The level of expressed mRNA in the presence of chemical substance/The level of expressed mRNA in the absence of chemical substance (yeast gene YMR011W): 0.6
- The level of expressed mRNA in the presence of chemical substance/The level of expressed mRNA in the absence of chemical substance (yeast gene YMR058W): 2.6
- The level of expressed mRNA in the presence of chemical substance/The level of expressed mRNA in the absence of chemical substance (yeast gene YMR162C): 1.0
- The level of expressed mRNA in the presence of chemical substance/The level of expressed mRNA in the absence of chemical substance (yeast gene YMR203W): 1.1
- The level of expressed mRNA in the presence of chemical substance/The level of expressed mRNA in the absence of chemical substance (yeast gene YNL055C): 2.6
- The level of expressed mRNA in the presence of chemical substance/The level of expressed mRNA in the absence of chemical substance (yeast gene YNL259C): 3.9
- The level of expressed mRNA in the presence of chemical substance/The level of expressed mRNA in the absence of chemical substance (yeast gene YNR072W): 0.9
- The level of expressed mRNA in the presence of chemical substance/The level of expressed mRNA in the absence of chemical substance (yeast gene YOL119C): 0.9
- The level of expressed mRNA in the presence of chemical substance/The level of expressed mRNA in the absence of chemical substance (yeast gene YOL156W): 1.2
- The level of expressed mRNA in the presence of chemical substance/The level of expressed mRNA in the absence of chemical substance (yeast gene YOL163W): 0.5
- The level of expressed mRNA in the presence of chemical substance/The level of expressed mRNA in the absence of chemical substance (yeast gene YOR035C): 1.9
- The level of expressed mRNA in the presence of chemical substance/The level of expressed mRNA in the absence of chemical substance (yeast gene YOR130C): 1.6
- The level of expressed mRNA in the presence of chemical substance/The level of expressed mRNA in the absence of chemical substance (yeast gene YOR153W): 7.4
- The level of expressed mRNA in the presence of chemical substance/The level of expressed mRNA in the absence of chemical substance (yeast gene YOR270C): 1.8
- The level of expressed mRNA in the presence of chemical substance/The level of expressed mRNA in the absence of chemical substance (yeast gene YOR273C): 0.4
- The level of expressed mRNA in the presence of chemical substance/The level of expressed mRNA in the absence of chemical substance (yeast gene YOR316C): 0.9
- The level of expressed mRNA in the presence of chemical substance/The level of expressed mRNA in the absence of chemical substance (yeast gene YOR328W): 2.9
- The level of expressed mRNA in the presence of chemical substance/The level of expressed mRNA in the absence of chemical substance (yeast gene YOR332W): 1.8
- The level of expressed mRNA in the presence of chemical substance/The level of expressed mRNA in the absence of chemical substance (yeast gene YOR348C): 0.7
- The level of expressed mRNA in the presence of chemical substance/The level of expressed mRNA in the absence of chemical substance (yeast gene YPL036W): 0.7
- The level of expressed mRNA in the presence of chemical substance/The level of expressed mRNA in the absence of chemical substance (yeast gene YPL134C): 1.2
- The level of expressed mRNA in the presence of chemical substance/The level of expressed mRNA in the absence of chemical substance (yeast gene YPL265W): 2.3
- The level of expressed mRNA in the presence of chemical substance/The level of expressed mRNA in the absence of chemical substance (yeast gene YPL271W): 3.3
- The level of expressed mRNA in the presence of chemical substance/The level of expressed mRNA in the absence of chemical substance (yeast gene YPR124W): 2.0
- The level of expressed mRNA in the presence of chemical substance/The level of expressed mRNA in the absence of chemical substance (yeast gene YPR192W): 0.9
- The level of expressed mRNA in the presence of chemical substance/The level of expressed mRNA in the absence of chemical substance (yeast gene YPR194C): 1.5
